This passage reports IC50 results from patent publication US9096518B2, “Substituted hydroxamic acids and uses thereof” (Millennium Pharmaceuticals, Inc., priority 2009, dated 2015).

The experiment has as its target T1, purified human HDAC6 (Homo sapiens, UniProt Q9UBN7).
T1 construct: purchased BPS Bioscience 5006
T1 sequence (Q9UBN7 1-1215): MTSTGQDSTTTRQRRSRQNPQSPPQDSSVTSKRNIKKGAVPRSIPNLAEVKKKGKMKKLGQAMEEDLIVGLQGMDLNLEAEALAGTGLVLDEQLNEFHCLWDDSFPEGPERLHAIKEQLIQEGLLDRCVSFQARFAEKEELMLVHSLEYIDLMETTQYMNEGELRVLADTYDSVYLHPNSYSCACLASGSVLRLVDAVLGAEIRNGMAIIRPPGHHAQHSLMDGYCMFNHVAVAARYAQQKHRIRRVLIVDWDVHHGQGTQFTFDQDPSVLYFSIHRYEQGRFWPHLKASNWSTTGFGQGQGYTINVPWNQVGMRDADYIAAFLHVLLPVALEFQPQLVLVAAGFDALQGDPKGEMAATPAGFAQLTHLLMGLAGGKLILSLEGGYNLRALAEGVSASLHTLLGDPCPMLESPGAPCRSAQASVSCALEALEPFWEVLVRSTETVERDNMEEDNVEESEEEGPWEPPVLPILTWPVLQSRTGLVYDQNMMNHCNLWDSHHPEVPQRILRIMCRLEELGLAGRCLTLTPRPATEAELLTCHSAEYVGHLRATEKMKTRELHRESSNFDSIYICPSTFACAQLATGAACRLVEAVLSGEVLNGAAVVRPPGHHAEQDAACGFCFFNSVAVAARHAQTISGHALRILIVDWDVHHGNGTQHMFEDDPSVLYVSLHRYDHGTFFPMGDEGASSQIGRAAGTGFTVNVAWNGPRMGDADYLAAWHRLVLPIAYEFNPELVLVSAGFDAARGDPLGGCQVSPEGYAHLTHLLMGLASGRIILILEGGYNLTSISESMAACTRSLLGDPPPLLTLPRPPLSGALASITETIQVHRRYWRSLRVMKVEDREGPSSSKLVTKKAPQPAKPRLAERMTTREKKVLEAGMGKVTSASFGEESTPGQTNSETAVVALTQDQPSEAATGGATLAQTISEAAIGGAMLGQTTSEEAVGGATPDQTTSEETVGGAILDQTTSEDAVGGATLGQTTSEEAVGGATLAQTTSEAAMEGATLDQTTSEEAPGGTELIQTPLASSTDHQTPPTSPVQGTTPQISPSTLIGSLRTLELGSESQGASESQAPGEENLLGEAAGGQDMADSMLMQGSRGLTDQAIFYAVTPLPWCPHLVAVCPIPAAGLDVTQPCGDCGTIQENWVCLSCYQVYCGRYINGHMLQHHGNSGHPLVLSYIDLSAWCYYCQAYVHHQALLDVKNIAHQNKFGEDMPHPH
In words: HDAC6 Enzyme Assay. It is filed as biochemical. Summed up: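 Purified human HDAC6 incubated 1 h at 30 °C with Ac-Arg-Gly-Lys(Ac)-AMC peptide and compound; reaction stopped with trichostatin A, then trypsin releases AMC, read by fluorescence (Ex 340/Em 460 nm). IC50 from concentration-response curves relative to DMSO controls.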

A word on the IC50: it is the concentration that inhibits the measured activity by half. A higher IC50 goes with a need for much substance. `CC(C)(C)c1ccccc1NC(=O)N1CCc2cc(C(=O)NO)ccc2C1` [Compound 96, N^2-(2-tert-butylphenyl)-N^6-hydroxy-3,4-dihydroisoquinoline-2,6(1H)-dicarboxamide]: the IC50 was under 50 nM.

The compound `CCCNC(=O)N1CCc2cc(C(=O)NO)ccc2C1` [Compound 97, N^6-hydroxy-N^2-propyl-3,4-dihydroisoquinoline-2,6(1H)-dicarboxamide] came in with a half-inhibitory concentration (IC50) of 50 to 100 nM.

Consider `O=C(NO)c1ccc2c(c1)CCN(C(=O)Nc1cccc(C(F)(F)F)c1)C2` [Compound 98, N^6-hydroxy-N^2-[3-(trifluoromethyl)phenyl]-3,4-dihydroisoquinoline-2,6(1H)-dicarboxamide], for which the IC50 was under 50 nM.

With `O=C(NO)c1ccc2c(c1)CCN(C(=O)Nc1ccc(Cc3ccccc3)cc1)C2` [Compound 99, N^2-(4-benzylphenyl)-N^6-hydroxy-3,4-dihydroisoquinoline-2,6(1H)-dicarboxamide], the IC50 was under 50 nM.

For the compound `O=C(NO)c1ccc2c(c1)CCN(C(=O)Nc1cccc3ccccc13)C2` [Compound 100, N^6-hydroxy-N^2-1-naphthyl-3,4-dihydroisoquinoline-2,6(1H)-dicarboxamide], the IC50 is under 50 nM.

`O=C(NO)c1ccc2c(c1)CCN(C(=O)NC1CCCCC1)C2` [Compound 101, N^2-cyclohexyl-N^6-hydroxy-3,4-dihydroisoquinoline-2,6(1H)-dicarboxamide] yielded an IC50 of under 50 nM.

For `O=C(NO)c1ccc2c(c1)CCN(C(=O)Nc1ccccc1-c1ccccc1)C2` [Compound 102, N^2-biphenyl-2-yl-N^6-hydroxy-3,4-dihydroisoquinoline-2,6(1H)-dicarboxamide], the IC50 was under 50 nM.

As for `CC(NC(=O)N1CCc2cc(C(=O)NO)ccc2C1)c1cccc2ccccc12` (stereo not shown) [Compound 103, N^6-hydroxy-N^2-[1-(1-naphthyl)ethyl]-3,4-dihydroisoquinoline-2,6(1H)-dicarboxamide], the IC50 is under 50 nM.

Turning to `CC(C)c1ccc(NC(=O)N2CCc3cc(C(=O)NO)ccc3C2)cc1` [Compound 104, N^6-hydroxy-N^2-(4-isopropylphenyl)-3,4-dihydroisoquinoline-2,6(1H)-dicarboxamide], the IC50 is under 50 nM.

As to `Cc1ccc(CNC(=O)N2CCc3cc(C(=O)NO)ccc3C2)cc1` [Compound 105, N^6-hydroxy-N^2-(4-methylbenzyl)-3,4-dihydroisoquinoline-2,6(1H)-dicarboxamide], the IC50 is under 50 nM.

Consider `O=C(NO)c1ccc2c(c1)CCN(C(=O)CC1CC1)C2` [Compound 106, 2-(cyclopropylacetyl)-N-hydroxy-1,2,3,4-tetrahydroisoquinoline-6-carboxamide], for which the IC50 lay in the range of 100 to 500 nM.

On to `O=C(NO)c1ccc2c(c1)CCN(Cc1cccc(OC(F)(F)F)c1)C2` [Compound 109, N-hydroxy-2-[3-(trifluoromethoxy)benzyl]-1,2,3,4-tetrahydroisoquinoline-6-carboxamide], for which the IC50 lay in the range of 100 to 500 nM.

`CC(c1ccccc1)N1CCc2cc(C(=O)NO)ccc2C1` (stereo not shown) [Compound 110, N-hydroxy-2-(1-phenylethyl)-1,2,3,4-tetrahydroisoquinoline-6-carboxamide] gave an IC50 of 100 to 500 nM.

The compound `O=C(NO)c1ccc2c(c1)CCN(CCOc1ccc(Cl)cc1)C2` [Compound 111, 2-[2-(4-chlorophenoxy)ethyl]-N-hydroxy-1,2,3,4-tetrahydroisoquinoline-6-carboxamide] gave an IC50 of 100 to 500 nM.

Regarding `O=C(NO)c1ccc2c(c1)CCN(S(=O)(=O)c1csc(-c3ccon3)c1)C2` [Compound 112, N-hydroxy-2-[(5-isoxazol-3-yl-3-thienyl)sulfonyl]-1,2,3,4-tetrahydroisoquinoline-6-carboxamide], the IC50 is 100 to 500 nM.

For `Cc1cccc(C)c1NC(=O)CN1CCc2cc(C(=O)NO)ccc2C1` [Compound 116, 2-{2-[(2,6-dimethylphenyl)amino]-2-oxoethyl}-N-hydroxy-1,2,3,4-tetrahydroisoquinoline-6-carboxamide], the IC50 lay within 50 to 100 nM.

`O=C(NO)c1ccc2c(c1)CCCN(C(=O)C13CC4CC(CC(C4)C1)C3)C2` [Compound 232, 2-(1-adamantylcarbonyl)-N-hydroxy-2,3,4,5-tetrahydro-1H-2-benzazepine-7-carboxamide]: the IC50 was 100 to 500 nM.

As to `Cn1ccc(C(=O)N2CCCc3cc(C(=O)NO)ccc3C2)n1` [Compound 233, N-hydroxy-2-[(1-methyl-1H-pyrazol-3-yl)carbonyl]-2,3,4,5-tetrahydro-1H-2-benzazepine-7-carboxamide], the IC50 was over 500 nM.

As to `O=C(NO)c1ccc2c(c1)CCCN(C(=O)c1cccc3ccccc13)C2` [Compound 234, N-hydroxy-2-(1-naphthoyl)-2,3,4,5-tetrahydro-1H-2-benzazepine-7-carboxamide], the IC50 was in the range of 100 to 500 nM.

`COc1ccc(C(=O)N2CCCc3cc(C(=O)NO)ccc3C2)cc1` [Compound 235, N-hydroxy-2-(4-methoxybenzoyl)-2,3,4,5-tetrahydro-1H-2-benzazepine-7-carboxamide] yielded a concentration for half-maximal inhibition (IC50) of 100 to 500 nM.

On to `O=C(NO)c1ccc2c(c1)CCCN(C(=O)Cc1cc(C(F)(F)F)cc(C(F)(F)F)c1)C2` [Compound 236, 2-{[3,5-bis(trifluoromethyl)phenyl]acetyl}-N-hydroxy-2,3,4,5-tetrahydro-1H-2-benzazepine-7-carboxamide], for which the IC50 is over 500 nM.

Consider `CC(C)(C)OC(=O)Nc1ccc(-c2cc(C(=O)N3CCc4cc(C(=O)NO)ccc4C3)no2)cc1` [Compound 237, tert-butyl[4-(3-{[6-[(hydroxyamino)carbonyl]-3,4-dihydroisoquinolin-2(1H)-yl]carbonyl}isoxazol-5-yl)phenyl]carbamate], for which the IC50 was 50 to 100 nM.

`CC(C)(C)c1ccc(C(=O)N2CCCc3cc(C(=O)NO)ccc3C2)cc1` [Compound 238, 2-(4-tert-butylbenzoyl)-N-hydroxy-2,3,4,5-tetrahydro-1H-2-benzazepine-7-carboxamide] displayed an IC50 of 100 to 500 nM.

`O=C(NO)c1ccc2c(c1)CCCN(C(=O)c1cc3ccccc3s1)C2` [Compound 239, 2-(1-benzothien-2-ylcarbonyl)-N-hydroxy-2,3,4,5-tetrahydro-1H-2-benzazepine-7-carboxamide] had an IC50 of under 50 nM.

In turn, `O=C(NO)c1ccc2c(c1)CCCN(C(=O)c1cc3cc(Cl)ccc3[nH]1)C2` [Compound 240, 2-[(5-chloro-1H-indol-2-yl)carbonyl]-N-hydroxy-2,3,4,5-tetrahydro-1H-2-benzazepine-7-carboxamide] displayed an IC50 of under 50 nM.

The compound `O=C(NO)c1ccc2c(c1)CCCN(C(=O)c1c(F)cc(F)cc1F)C2` [Compound 241, N-hydroxy-2-(2,4,6-trifluorobenzoyl)-2,3,4,5-tetrahydro-1H-2-benzazepine-7-carboxamide] came in with an IC50 of 100 to 500 nM.

The compound `COc1cccc2cc(C(=O)N3CCCc4cc(C(=O)NO)ccc4C3)oc12` [Compound 242, N-hydroxy-2-[(7-methoxy-1-benzofuran-2-yl)carbonyl]-2,3,4,5-tetrahydro-1H-2-benzazepine-7-carboxamide] registered an IC50 of under 50 nM.

In turn, `O=C(NO)c1ccc2c(c1)CCCN(C(=O)c1cnc3ccccc3n1)C2` [Compound 243, N-hydroxy-2-(quinoxalin-2-ylcarbonyl)-2,3,4,5-tetrahydro-1H-2-benzazepine-7-carboxamide] showed an IC50 of 100 to 500 nM.

For the compound `O=C(NO)c1ccc2c(c1)CCCN(C(=O)c1ccc(-c3ccccc3)cc1)C2` [Compound 244, 2-(biphenyl-4-ylcarbonyl)-N-hydroxy-2,3,4,5-tetrahydro-1H-2-benzazepine-7-carboxamide], the IC50 lay within 100 to 500 nM.

`Cc1cc(C(=O)N2CCCc3cc(C(=O)NO)ccc3C2)no1` [Compound 245, N-hydroxy-2-[(5-methylisoxazol-3-yl)carbonyl]-2,3,4,5-tetrahydro-1H-2-benzazepine-7-carboxamide] came in with an IC50 of 100 to 500 nM.

Consider `O=C(NO)c1ccc2c(c1)CCCN(C(=O)C1CCCCCC1)C2` [Compound 246, 2-(cycloheptylcarbonyl)-N-hydroxy-2,3,4,5-tetrahydro-1H-2-benzazepine-7-carboxamide], for which the IC50 lay within 100 to 500 nM.
